Data published in US8487108B2, “Piperidinyl carbamate intermediates for the synthesis of aspartic protease inhibitors” (Vitae Pharmaceuticals, Inc., priority 2005, dated 2013).

Key:
[1] = system: double transgenic rats engineered to express human renin and human angiotensinogen; assay: Blood pressure by telemetry in double transgenic rats; format: in vivo, rat; conditions: dosage of 10 mg/kg, oral
Experimental: Double Transgenic Rats: The efficacy of the renin inhibitors can also evaluated in vivo in double transgenic rats engineered to express human renin and human angiotensinogen (Bohlender J, Fukamizu A, Lippoldt A, Nomura T, Dietz R, Menard J, Murakami K, Luft F C, Ganten D. High human renin hypertension in transgenic rats. Hypertension 1997, 29, 428-434).
(§1) Experiments were conducted in 6-week-old double transgenic rats (dTGRs). The model has been described in detail earlier. […] The human angiotensinogen construct made up the entire human angiotensinogen gene (5 exons and 4 introns), with 1.3 kB of 5′-flanking and 2.4 kB of 3′-flanking sequences. The rats were purchased from RCC Ltd (Füllinsdorf, Switzerland). Radio telemetry transmitters were surgically implanted at 4 weeks of age. The telemetry system provided 24-h recordings of systolic, mean, diastolic arterial pressure (SAP, MAP, DAP, respectively) and heart rate (HR). Beginning on day 42, animals were transferred to telemetry cages. A 24 h telemetry reading was obtained. Rats were then dosed orally on the following 4 consecutive days (days 43-46). The rats were monitored continuously and allowed free access to standard 0.3%-sodium rat chow and drinking water.

[2] = Plasma concentration in double transgenic rats after oral administration; format: in vivo, rat; conditions: 10 mg/kg oral
Experimental: FIG. 2 is a plot showing mean plasma concentrations of compound L-6a in transgenic rats over time following oral administration of 10 mg/kg of compound L-6a.
as §1

Question: What does the source list for `CNC[C@H](C[C@H]1CCCOC1)NC(=O)N1CCC[C@@H]([C@@H](OCCNC(=O)OC)c2cccc(Cl)c2)C1` [Example L-6a, methyl 2-((R)-(3-chlorophenyl)((R)-1-((S)-1-(methylamino)-3-((R)-tetrahydro-2H-pyran-3-yl)propan-2-ylcarbamoyl)-piperidin-3-yl)methoxy)-ethylcarbamate]?
Answer: effect in lowering blood pressures of double transgenic rats [1]: significant effect in lowering blood pressures; availability in rat's plasma following oral administration [2]: readily available in rat's plasma; metabolic stability [2]: excellent; oral bioavailability [2]: excellent; plasma concentration over 24 h period ([2]; over 24 h): remains relatively high
